According to ChEMBL document CHEMBL5726468, “Heterocyclic compounds and methods of use thereof” (2019):
“And” between values parts separate entries of the source, which are not always exact repeats. Equal values may be shown once.

test: Huh 7.5.1 ATPlite assay : This example demonstrates the EC50 and CC50 values against HCV according to the HCVcc-RLuc reporter assay described in Example 5 and the cytotoxicity using the Huh 7.5.1 ATPlite assay for compounds in accordance with an embodiment of the invention.; conditions: not given

Row | SMILES | EC50
1 | CC1OC(c2c(Cl)cccc2Br)=NC1CN1CCC(C(=O)NCCCN2C[C@H](C)C[C@H](C)C2)CC1 (stereo partly drawn) | 178 nM and 386 nM

same assay, conditions: Huh-7.5.1

Row | SMILES | EC50 [nM]
2 | CC1OC(c2ccc(Cl)cc2)=NC1CN1CCC(C(=O)NCCCN2C[C@H](C)C[C@H](C)C2)CC1 (stereo partly drawn) | 110
3 | CC1OC(c2c(F)cccc2F)=NC1CN1CCC(C(=O)NCCCN2C[C@H](C)C[C@H](C)C2)CC1 (stereo partly drawn) | 624
4 | COc1cccc(Br)c1C1=NC(CN2CCC(C(=O)NCCCN3C[C@H](C)C[C@H](C)C3)CC2)C(C)O1 (stereo partly drawn) | 213
5 | Cc1ccccc1C1=NC(CN2CCC(C(=O)NCCCN3CCC(C)CC3)CC2)C(C)O1 (stereo not drawn) | 400
6 | CCN(CC)CCCCNC(=O)C1CCN(CC2N=C(c3cc(OC)cc(OC)c3)OC2C)CC1 (stereo not drawn) | 6550
7 | Cc1cccc(Cl)c1C1=NC(CN2CCC(C(=O)NCCCN3C[C@H](C)C[C@H](C)C3)CC2)C(C)O1 (stereo partly drawn) | 14
8 | Cc1cccc(Cl)c1C1=NC(CN2CCC(C(=O)NCCCN3CCC(C)(C)CC3)CC2)C(C)O1 (stereo not drawn) | 220
9 | COc1cc(OC)cc(C2=NC(CN3CCC(C(=O)NCCCN4CC(C)CC(C)C4)CC3)C(C)O2)c1 (stereo not drawn) | 680
10 | CCc1ccccc1C1=NC(CN2CCC(C(=O)NCCCN3C[C@H](C)C[C@H](C)C3)CC2)C(C)O1 (stereo partly drawn) | 140
11 | CC1OC(c2ccc(Cl)c(Cl)c2)=NC1CN1CCC(C(=O)NCCCN2C[C@H](C)C[C@H](C)C2)CC1 (stereo partly drawn) | 13
12 | Cc1ccccc1C1=NC(CN2CCC(C(=O)NCCN3CCCCC3)CC2)C(C)O1 (stereo not drawn) | 1200
13 | Cc1ccccc1-c1nc(CC2CCC[C@@H](C(=O)CCCCN3C[C@H](C)C[C@H](C)C3)C2)c(C)o1 (stereo partly drawn) | 410
14 | CC1CCCN(CCCNC(=O)C2CCN(Cc3oc(-c4cc(C(F)(F)F)cc(C(F)(F)F)c4)nc3C(F)(F)F)CC2)C1 (stereo not drawn) | 341
15 | CC1OC(c2c(Cl)cccc2Cl)=NC1CN1CCC(C(=O)NCCCN2C[C@H](C)C[C@H](C)C2)CC1 (stereo partly drawn) | 221
16 | CC1OC(c2c(F)cccc2Cl)=NC1CN1CCC(C(=O)NCCCN2C[C@H](C)C[C@H](C)C2)CC1 (stereo partly drawn) | 334
17 | CC1OC(c2ccc(F)cc2)=NC1CN1CCC(C(=O)NCCCN2C[C@H](C)C[C@H](C)C2)CC1 (stereo partly drawn) | 53
18 | Cc1cc(C)cc(C2=NC(CN3CCC(C(=O)NCCCN4C[C@H](C)C[C@H](C)C4)CC3)C(C)O2)c1 (stereo partly drawn) | 36
19 | Cc1ccccc1-c1nc(CN2CCC(C(=O)NCCCN3C[C@H](C)C[C@H](C)C3)CC2)c(C)s1 | 38
20 | Cc1ccccc1-c1nc(CN2CCC[C@@H](C(=O)NCCCN3C[C@H](C)C[C@H](C)C3)C2)c(C)o1 | 304
21 | Cc1ccc(C2=NC(CN3CCC(C(=O)NCCCN4C[C@H](C)C[C@H](C)C4)CC3)C(C)O2)cc1C (stereo partly drawn) | 98
22 | COc1cccc(F)c1C1=NC(CN2CCC(C(=O)NCCCN3C[C@H](C)C[C@H](C)C3)CC2)C(C)O1 (stereo partly drawn) | 455
23 | Cc1cc(-c2nc(CN3CCC(C(=O)NCCCN4C[C@H](C)C[C@H](C)C4)CC3)co2)ccc1F | 38
24 | Cc1ccccc1C1=NC(CN2CCC(C(=O)N3CCN(CCN(C)C)CC3)CC2)C(C)O1 (stereo not drawn) | 6100
25 | CC1OC(c2ccccc2Cl)=NC1CN1CCC(C(=O)NCCCN2C[C@H](C)C[C@H](C)C2)CC1 (stereo partly drawn) | 86
26 | Cc1ccc(C2=NC(CN3CCC(C(=O)NCCCN4C[C@H](C)C[C@H](C)C4)CC3)C(C)O2)cc1 (stereo partly drawn) | 100
27 | C[C@@H]1C[C@H](C)CN(CCCNC(=O)C2CCN(Cc3oc(-c4cc(C(F)(F)F)cc(C(F)(F)F)c4)nc3C(F)(F)F)CC2)C1 | 153
28 | Cc1cc(C)c(C2=NC(CN3CCC(C(=O)NCCCN4C[C@H](C)C[C@H](C)C4)CC3)C(C)O2)c(C)c1 (stereo partly drawn) | 190
